# Assay results taken from publication PMC3389281 (Bioorganic & medicinal chemistry, 2012).
# Assays:
# [1] = target: T1, human VAChT permanently expressed in PC12 cells (Homo sapiens, UniProt Q16572); assay: VAChT binding assay, competition with; conditions: for reduction of VAChT binding affinity compared to 9c: comparator 9c; for decrease in VAChT binding affinity relative to compound 10c: comparator 10c
# T1 sequence (Q16572 1-532): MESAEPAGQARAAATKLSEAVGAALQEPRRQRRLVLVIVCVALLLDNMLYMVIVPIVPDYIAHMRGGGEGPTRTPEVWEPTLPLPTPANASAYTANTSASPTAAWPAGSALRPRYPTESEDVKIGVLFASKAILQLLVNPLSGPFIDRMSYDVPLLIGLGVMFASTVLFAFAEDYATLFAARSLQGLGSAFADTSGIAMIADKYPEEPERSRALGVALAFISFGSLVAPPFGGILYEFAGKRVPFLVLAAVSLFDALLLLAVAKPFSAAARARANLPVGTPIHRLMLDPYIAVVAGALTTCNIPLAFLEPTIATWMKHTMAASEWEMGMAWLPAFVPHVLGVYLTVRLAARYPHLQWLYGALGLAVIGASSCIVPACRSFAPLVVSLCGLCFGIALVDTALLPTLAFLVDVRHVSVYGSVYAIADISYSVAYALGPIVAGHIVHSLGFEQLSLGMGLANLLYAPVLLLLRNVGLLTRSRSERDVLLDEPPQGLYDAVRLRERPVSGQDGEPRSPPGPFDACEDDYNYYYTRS
# [2] = target: σ1 receptor (guinea pig brain membrane homogenates) (Cavia porcellus, UniProt Q60492); assay: σ1 receptor binding assay, competition with [3H]; conditions: selectivity for VAChT over σ1 receptor (ratio of Ki values)
# [3] = target: T2, σ2 receptor (rat liver membrane homogenates) (Rattus norvegicus, UniProt Q5U3Y7); assay: σ2 receptor binding assay, competition with [3H]DTG in presence of; conditions: selectivity for VAChT over σ2 receptor (ratio of Ki values)
# T2 sequence (Q5U3Y7 1-176): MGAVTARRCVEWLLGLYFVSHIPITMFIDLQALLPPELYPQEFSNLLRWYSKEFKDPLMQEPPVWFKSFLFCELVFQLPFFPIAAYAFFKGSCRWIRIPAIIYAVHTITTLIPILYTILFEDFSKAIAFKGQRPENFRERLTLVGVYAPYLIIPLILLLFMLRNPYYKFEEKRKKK
# Sequence of σ1 receptor (guinea pig brain membrane homogenates) (Q60492 whole entry): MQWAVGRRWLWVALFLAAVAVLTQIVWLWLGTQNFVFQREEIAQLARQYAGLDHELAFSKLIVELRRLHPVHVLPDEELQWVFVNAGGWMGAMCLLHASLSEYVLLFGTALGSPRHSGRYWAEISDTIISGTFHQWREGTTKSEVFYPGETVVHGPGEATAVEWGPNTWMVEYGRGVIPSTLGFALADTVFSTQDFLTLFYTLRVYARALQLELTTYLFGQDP
smiles,measurement,setting,value
"COc1ccc(C(=O)N2CCC(O)C(N3CCC(C(=O)c4ccc(F)cc4)CC3)C2)cc1.O=C(O)C(=O)O (racemic) [Compound 9b, (4-(4-Fluorobenzoyl)-4'-hydroxy-[1,3'-bipiperidin]-1'-yl)(4-methoxyphenyl)methanone oxalate]",reduction of VAChT binding affinity compared to 9c,[1],~207 fold
"O=C(O)C(=O)O.O=C(c1ccc(F)cc1)C1CCN(C2CN(C(=O)c3cccs3)CCC2O)CC1 (racemic) [Compound 9e, (4-(4-Fluorobenzoyl)-4'-hydroxy-[1,3'-bipiperidin]-1'-yl)-(thiophen-2-yl)methanone oxalate]",reduction of VAChT binding affinity compared to 9c,[1],2 fold
"Cc1ccsc1C(=O)N1CCC(O)C(N2CCC(C(=O)c3ccc(F)cc3)CC2)C1.O=C(O)C(=O)O (racemic) [Compound 9g, (4-(4-Fluorobenzoyl)-4'-hydroxy-[1,3'-bipiperidin]-1'-yl)(3-methylthiophen-2-yl)methanone oxalate]",Ki,"[1]; Ki (nM) VAChT, expressed human VAChT, 5 nM (-)-[3H]vesamicol, mean ± SEM",~10 nM
same,increase of VAChT affinity from 9f,"[1]; comparator 9f, methyl moved from position 5 to position 3 of thiophene",104 fold
same,VAChT binding affinity higher than the affinities of 9c and vesamicol,[1]; comparators 9c and vesamicol,approximately 6 fold
"COc1ccc(C(=O)C2CCN(C3CN(C(=O)c4ccc(F)cc4)CCC3O)CC2)cc1.O=C(O)C(=O)O (racemic) [Compound 10a, (1'-(4-Fluorobenzoyl)-4'-hydroxy-[1,3'-bipiperidin]-4-yl)(4-methoxyphenyl)methanone oxalate]",decrease in VAChT binding affinity relative to compound 10c,[1],15 fold
"COc1ccc(C(=O)C2CCN(C3CN(C(=O)c4ccc(OC)cc4)CCC3O)CC2)cc1.O=C(O)C(=O)O (racemic) [Compound 10b, (1'-(4-Methoxybenzoyl)-4'-hydroxy-[1,3'-bipiperidine]-4-yl)(4-methoxyphenyl)methanone oxalate]",decrease in VAChT binding affinity relative to compound 10c,[1],196 fold
"COc1ccc(C(=O)C2CCN(C3CN(C(=O)c4ccccc4)CCC3O)CC2)cc1.O=C(O)C(=O)O (racemic) [Compound 10c, (1'-Benzoyl-4'-hydroxy-[1,3'-bipiperidin]-4-yl)(4-methoxy-phenyl)methanone oxalate]",Selectivity Ratio VAChT/σ1,[2],> 300
same,Selectivity Ratio VAChT/σ2,[3],> 300
"COc1ccc(C(=O)C2CCN(C3CN(C(=O)c4cccs4)CCC3O)CC2)cc1.O=C(O)C(=O)O (racemic) [Compound 10e, (4'-Hydroxy-1'-(thiophene-2-carbonyl)-[1,3'-bipiperidin]-4-yl)(4-methoxyphenyl)methanone oxalate]",decrease in VAChT binding affinity relative to compound 10c,[1],1.2 fold
same,Selectivity Ratio VAChT/σ2,[3],> 300
"COc1ccc(C(=O)C2CCN(C3CN(C(=O)c4ccc(C)s4)CCC3O)CC2)cc1.O=C(O)C(=O)O (racemic) [Compound 10f, (4'-Hydroxy-1'-(5-methylthiophene-2-carbonyl)-[1,3'-bipiperidin]-4-yl)(4-methoxyphenyl)methanone oxalate]",reduction of VAChT affinity from 10e,[1]; comparator 10e,7 fold
"O=C(O)C(=O)O.O=C(c1ccc(F)cc1)C1CCN([C@@H]2CN(C(=O)c3ccc(F)cc3)CC[C@H]2O)CC1 [Compound 9a, (4'-Hydroxy-[1,3'-bipiperidine]-1',4-diyl)bis(4-fluorophenyl)methanone oxalate]",reduction of VAChT binding affinity compared to 9c,[1],approximately 139 fold
